The nature of data set [1]: Stability of conjugates in human blood plasma spiked with LB. Type of data set: in vitro ADME. Particulars: 50% human blood plasma spiked with 10% LB, within three hours. The method, then: (§1) A 1 mM solution of the studied compound was prepared in PBS (150 mM NaCl, 2.6 mM KCl, 1.4 mM KH2PO4, 10 mM Na2HPO4, pH 7.4) with 20% DMSO. 50 μL of this solution was diluted in 950 μL matrix or human plasma (spiked with 10% LB) on ice. After brief vortex, 100 μL were immediately treated with 100 μL ice-cold MeCN (spiked with […] diphenhydramine as internal standard). The rest of the solution was incubated at 37° C. and 500 rpm in an eppendorf thermomixer. At various time points (30, 60, 120, 180 min), 100 L sample were taken and treated as described above. […] The AUC of the parent drug and its cleavage products and the internal standard was quantified using Compass QuantAnalysis quantification software. The relative AUC was calculated by AUC (compound)/AUC(ISTD). Procaine was used as a positive control as it readily degrades in human plasma.

For data set [2], the system named is P. aeruginosa PA14. Description: Antibiotic susceptibility (MIC assay, broth microdilution). Type of data set: cell-based, Pseudomonas aeruginosa PA14. The procedure: Bacterial strains were streaked on LB-agar plates (1% agar) from glycerol stocks and incubated at 37° C. overnight. Colonies were picked from plate and dispersed in fresh MiGler-Hinton broth II (MHB II) to yield an OD600 of 0.08-0.13. This dispersion was diluted 1:100 in fresh MHB II, which was then used for the assay to achieve a final inoculum of 5×10^5 CFU/mL. 50 μL inoculum was mixed with 50 μL of the serial dilution in the corresponding well of the 96-well plate.
The different matrices were prepared under sterile conditions: (i) 5 mL human plasma and 1 mL sterile filtrate from an P. aeruginosa PA14 overnight culture in LB were mixed with 4 mL PBS; (ii) 1 mL sterile filtrate from an P. aeruginosa PA14 overnight culture was diluted in 9 mL PBS; (iii) PBS only and (iv) 5 mL human plasma and 1 mL LB were mixed with 4 mL PBS. 6 L of each compound dilution series was diluted in 115 L matrix (˜-1:20 dilution) in a 96-well format at time point T=−3 h or T=−10 min.
The plates prepared at T=−3 h were sealed with gas-permeable foil and incubated at 37° C. in a humid incubator. The other plates were kept at room temperature. At T=0 h, 50 µL of each well was mixed with 50 μL incoculum (as described above) in double-concentrated MHBII in a sterile 96-well plate.
The plates were sealed with gas-permeable foil and incubated at 37° C. for 18-20 h in a humid incubator. Growth inhibition was assessed by visual inspection and given MIC values are the lowest concentration of antibiotic at which there was no visible growth.

Data set [3] deals with LecB PAO1 (Pseudomonas aeruginosa, UniProt Q9HYN5). Type of data set: binding. Particulars: target LecB PAO1; for Ki: calculated as Ki from IC50, read-out: Ki ± s.d. The procedure:
LecB (LecB PAO1 according to Hauck et al. and LecB PA14 according to Sommer et al.): A serial dilution of the test compounds was prepared in TBS/Ca, with 20% DMSO as cosolvent. […] Fluorescence was measured and analysed as for LecA. Bottom and top plateaus were fixed according to the control compound in each assay (1-fucose) and the data was re-analysed with these values fixed. A minimum of three independent measurements on three plates was performed for each inhibitor.

Data set [4] can be described thus: Prodrug activation assay in human blood plasma spiked with P. aeruginosa PA14 culture supernatant. Type of data set: in vitro ADME, Pseudomonas aeruginosa PA14. Particulars: 50% human blood plasma spiked with 10% P. aeruginosa culture supernatant, within 3 h. The method, then: In the prodrug activation assay, the bacterial strain Pseudomonas aeruginosa PA14 wt (DSM 19882) was used. The strain was obtained from the German Collection of Microorganisms and Cell Cultures (DSMZ).
P. aeruginosa PA14 was streaked on LB-agar plates (1% agar) from glycerol stocks and incubated at 37° C. overnight. 2-5 colonies were picked and dispersed in 10 mL LB (10 g/L trypton, 10 g/L NaCl, 5 g/L yeast extracts). This dispersion was incubated overnight at 37° C., 180 rpm under high humidity. The culture was centrifuged (4000 ref, room temperature, 10 min) and the supernatant was filtered (0.22 m pore size). […]
as §1

Data set [5] deals with T1, LecA (Pseudomonas aeruginosa, UniProt Q05097).
T1 construct: made in house
T1 sequence (Q05097 whole entry): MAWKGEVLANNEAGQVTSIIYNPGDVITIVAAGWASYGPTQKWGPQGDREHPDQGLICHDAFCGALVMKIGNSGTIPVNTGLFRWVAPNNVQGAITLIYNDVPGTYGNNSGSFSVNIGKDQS
The data set can be described thus: Competitive binding assay based on fluorescence polarization with LecA. The method, then:
LecA (according to Joachim et al.): A serial dilution of the test compounds was prepared in TBS/Ca (8.0 g/L NaCl, 2.4 g/L Tris, 0.19 g/L KCl, 0.15 g/L CaCl2·2 H2O), with 30% DMSO as co-solvent. […] The measured intensities were reduced by the values of only LecA in TBS/Ca and fluorescence polarization was calculated. The data was analysed with the MARS Data Analysis Software (BMG Labtech GmbH, Germany) and fitted according to the four-parameter variable slope model. Bottom and top plateaus were fixed according to the control compounds in each assay ((p-nitrophenyl)-p-D-galactoside) and the data was re-analysed with these values fixed. A minimum of three independent measurements on three plates was performed for each inhibitor.
Averages and standard deviations were calculated from at least three independent experiments.

Data set [6] deals with LecB PA14 (Pseudomonas aeruginosa, UniProt A0A0H2ZE85). Type of data set: binding. As to conditions: target LecB PA14. The method, then: LecB (LecB PAO1 according to Hauck et al. and LecB PA14 according to Sommer et al.): A serial dilution of the test compounds was prepared in TBS/Ca, with 20% DMSO as cosolvent. A concentrated solution of LecB PAO1 or PA14 was diluted in TBS/Ca together with the fluorescent reporter ligand (N-(fluorescein-5-yl)-N′-(α-l-fucopyranosyl ethylen)-thiocarbamide) to yield concentrations of 300 nM and 20 nM, respectively. 10 μL of this mix was added to 10 μL serial dilutions of the test compounds in a black 384-well microtiter plates (Greiner Bio-One, Germany, cat. no. 781900) in triplicates. After centrifugation (2680 ref, 1 min, room temperature), the reactions were incubated for 4-8 h at room temperature in a humidity chamber. Fluorescence was measured and analysed as for LecA. Bottom and top plateaus were fixed according to the control compound in each assay (1-fucose) and the data was re-analysed with these values fixed. A minimum of three independent measurements on three plates was performed for each inhibitor.
Chain of LecB PA14 (A0A0H2ZE85 entry or part of it): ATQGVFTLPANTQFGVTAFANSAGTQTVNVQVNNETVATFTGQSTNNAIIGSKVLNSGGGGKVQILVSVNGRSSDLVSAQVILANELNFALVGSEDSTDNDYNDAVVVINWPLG

Where [7] appears, read: Matrix 1: PBS, pre-incubation 3 h.
The mark [8] stands for this setting: Matrix 1: PBS, pre-incubation <10 min.
[9] abbreviates: Matrix 2: 50% human blood plasma + 10% P. aeruginosa culture supernatant in PBS, pre-incubation 3 h.
The mark [10] stands for this setting: Matrix 2: 50% human blood plasma + 10% P. aeruginosa culture supernatant in PBS, pre-incubation <10 min.
Setting [11] is: Matrix 3: 10% P. aeruginosa culture supernatant in PBS, pre-incubation 3 h.
The mark [12] stands for this setting: Matrix 3: 10% P. aeruginosa culture supernatant in PBS, pre-incubation <10 min.
The mark [13] stands for this setting: Matrix 4: 50% human blood plasma + 10% LB in PBS, pre-incubation <10 min.
The mark [14] stands for this setting: target LecA, calculated as Ki from IC50, read-out: Ki ± s.d.
[15] abbreviates: target LecA, read-out: IC50 ± s.d.
Setting [16] is: Matrix 4: 50% human blood plasma + 10% LB in PBS, pre-incubation 3 h.

The structures appear in SMILES notation. Converted amounts (≈) assume the structure as drawn. “Also recorded” adds a separate entry of the source. Where two headings read alike, the source gives them in different places. A value given as a limit tells only on which side of the number the result lay.

In general, MIC refers to the lowest concentration found to suppress growth. A word on the IC50: it is the midpoint of a concentration-inhibition curve. The Ki is the equilibrium dissociation constant of an inhibitor or competing ligand from its target.

Chain of LecB PAO1 (Q9HYN5 entry or part of it): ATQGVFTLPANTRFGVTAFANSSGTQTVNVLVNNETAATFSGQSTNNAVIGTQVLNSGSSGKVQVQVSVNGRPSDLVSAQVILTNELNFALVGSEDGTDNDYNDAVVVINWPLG

Turning to `CC(C)CC(NC(=O)CNC(=O)C(C)NC(=O)c1ccc(S(=O)(=O)NCC2OC(C)C(O)C(O)C2O)cc1)C(=O)NC(C)C(=O)NCC1CCN(c2cc3c(cc2F)c(=O)c(C(=O)O)cn3C2CC2)C1` (centres unmarked) [Compound 49], the figures for the “release of antibiotic cargo” value in data set [1] and in data set [4] were “no significant release of their antibiotic cargo” and “release their antibiotic cargo; also recorded: released a significant amount of their antibiotic cargo; also recorded: efficiently released their antibiotic cargo”, respectively. The MIC in data set [2] (setting [7]) is above 25 µM; in data set [2] (setting [8]), above 25 µM; in data set [2] (setting [9]) it was 1.56 to 3.13 µM; in data set [2] (setting [10]), 3.13 to 6.25 µM; in data set [2] (Matrix 3, <10 min pre-incubation (text b309)) it was 3.13 µM (≈ 3.13 µg/mL); in data set [2] (setting [11]) it was 1.56 to 6.25 µM. Moreover, the figures for the MIC in data set [2] (setting [12]) and in data set [2] (setting [13]) were 3.13 to 6.25 µM and at least 25 µM, respectively. The compound further returned an IC50 in data set [3] of 4.29 ± 2.99 µM. For the same compound, the “IC50 ± s.d.” value in data set [3] was “one-digit micromolar range”. Moreover, in data set [3], the Ki was 1.75 ± 1.4 µM.
Consider `NC[C@@H]1CCN(c2nc3c(cc2F)c(=O)c(C(=O)O)cn3C2CC2)C1` [Compound 3, (S)-7-(3-(aminomethyl)-1-pyrrolidinyl)-1-cyclopropyl-6-fluoro-1,4-dihydro-4-oxo-1,8-naphthyridine-3-carboxylic acid, reference compound], for which the MIC in data set [2] (Pseudomonas aeruginosa, PA14, read-out: MIC (parent drug)) is 0.29 to 1.45 µM (≈ 0.1 to 0.502 µg/mL).
`CC(C)C[C@H](NC(=O)CNC(=O)[C@H](C)NC(=O)c1ccc(S[C@@H]2O[C@H](CO)[C@H](O)[C@H](O)[C@H]2O)cc1)C(=O)N[C@@H](C)C(=O)N1CCN(c2cc3c(cc2F)c(=O)c(C(=O)O)cn3C2CC2)CC1` [Compound 24]: the Ki in data set [5] (setting [14]) was 12.9 ± 1.12 µM. For the same compound, in data set [5] (setting [15]), the IC50 was 31.7 ± 2.46 µM. The “release of antibiotic cargo” value in data set [1] is recorded as “no significant release of their antibiotic cargo”; in data set [4] it was “do not release ciprofloxacin; also recorded: degradation stopped at the stage of the secondary amide Ala-ciprofloxacin”. For the same compound, the minimal inhibitory concentration (MIC) was above 25 µM in data set [2] (setting [7]); above 25 µM in data set [2] (setting [8]); at least 25 µM in data set [2] (setting [9]); at least 25 µM in data set [2] (setting [11]); at least 25 µM in data set [2] (setting [12]); at least 25 µM in data set [2] (setting [16]). Also, the MIC in data set [2] (setting [13]) was at least 25 µM.
Regarding `CC(C)CC(NC(=O)CNC(=O)C(C)NC(=O)c1ccc(SC2OC(CO)C(O)C(O)C2O)cc1)C(=O)NC(C)C(=O)NCC1CCN(c2cc3c(cc2F)c(=O)c(C(=O)O)cn3C2CC2)C1` (centres unmarked) [Compound 48], the Ki in data set [5] (setting [14]) was 11.2 ± 0.73 µM. In data set [5] (setting [15]), the IC50 was found to be 28 ± 1.61 µM. Besides, the “release of antibiotic cargo” value in data set [1] is given as “no significant release of their antibiotic cargo”; in data set [4], “release their antibiotic cargo; also recorded: released a significant amount of their antibiotic cargo; also recorded: efficiently released their antibiotic cargo”. Besides, the minimal inhibitory concentration (MIC) in data set [2] (setting [7]) is above 25 µM; in data set [2] (setting [8]), above 25 µM; in data set [2] (setting [9]), 1.56 µM; in data set [2] (setting [10]) it was 3.13 to 12.5 µM; in data set [2] (setting [11]) it was 1.56 to 3.13 µM; in data set [2] (setting [12]) it was 1.56 to 3.13 µM. Besides, the MIC in data set [2] (setting [13]) was above 25 µM.
Regarding `O=C(O)c1cn(C2CC2)c2cc(N3CCNCC3)c(F)cc2c1=O` [Compound 1, Ciprofloxacin, reference compound], the MIC in data set [2] (setting [9]) was 0.156 to 0.25 µM; in data set [2] (setting [10]), 0.25 to 0.313 µM; in data set [2] (setting [16]), 0.156 to 0.313 µM; in data set [2] (setting [13]), 0.156 to 0.313 µM.
Take `CC(C)C[C@H](NC(=O)CNC(=O)[C@H](C)NC(=O)c1ccc(S(=O)(=O)NC[C@H]2O[C@@H](C)[C@@H](O)[C@@H](O)[C@@H]2O)cc1)C(=O)N[C@@H](C)C(=O)N1CCN(c2cc3c(cc2F)c(=O)c(C(=O)O)cn3C2CC2)CC1` [Compound 25]: the IC50 in data set [6] worked out at 1 ± 0.32 µM; in data set [3], 4.63 ± 1.99 µM. In addition, the inhibition constant Ki in data set [6] (calculated as Ki from IC50, read-out: Ki ± s.d.) is 0.36 ± 0.12 µM; in data set [3], 1.92 ± 0.93 µM. Also, the “release of antibiotic cargo” value in data set [1] is given as “no significant release of their antibiotic cargo”; in data set [4], “do not release ciprofloxacin; also recorded: degradation stopped at the stage of the secondary amide Ala-ciprofloxacin”. The MIC in data set [2] (setting [7]) is above 25 µM; in data set [2] (setting [8]) it was above 25 µM; in data set [2] (setting [9]) it was at least 25 µM; in data set [2] (setting [11]), at least 25 µM; in data set [2] (setting [12]) it was at least 25 µM; in data set [2] (setting [16]), at least 25 µM. In addition, the MIC in data set [2] (setting [13]) is at least 25 µM. In data set [3], the “IC50 ± s.d.” value is reported as “one-digit micromolar range”.
Turning to `O=[N+]([O-])c1ccc(S[C@@H]2O[C@H](CO)[C@H](O)[C@H](O)[C@H]2O)cc1` [pNP-β-D-Gal, p-nitrophenyl-β-thio-galactoside, reference compound], in data set [5], the concentration for half-maximal inhibition (IC50) came to 61.9 ± 0.6 µM and affinity was put at a Ki of 26.9 ± 0.25 µM.

The record behind these values is patent publication US20250295790A1, “LECTIN-TARGETING CONJUGATES” (Helmholtz-Zentrum für Infektionsforschung GmbH, priority 2021, published 2025).
